Key:
[1] = target: T1, human V2 receptor (Homo sapiens, UniProt P30518); assay: Cellular in vitro assay for vasopressin receptor activity (aequorin luminescence, CHO K1 cells), hV2; format: cell-based; settings: CHO cell line transfected with human V2 receptor and Gα16, agonist [Arg8]-vasopressin
T1 construct: expressed in transfected cells; host or cells: CHO K1 (ATCC), constitutively expressing modified aequorin and co-transfected with Gα16
From the text: (§1) The identification of agonists and antagonists of the V1a and V2 vasopressin receptors from humans and rats and also the quantification of the activity of the substances described here took place using recombinant cell lines. These cells derive originally from a hamster ovary epithelial cell (Chinese Hamster Ovary, CHO K1, ATCC: American Type Culture Collection, Manassas, Va. 20108, USA). The test cell lines constitutively express a modified form of the calcium-sensitive photoprotein aequorin, which, after reconstitution with the cofactor coelenterazine, emits light when there are increases in the free calcium concentration (Rizzuto R., Simpson A. W., Brini M., Pozzan T.; Nature 358 (1992) 325-327). In addition, the cells are stably transfected with the human or rat V1a or V2 receptors. In the case of the Gs-coupling V2 receptors, the cells are stably transfected with a further gene, which codes for the promiscuous Gα16 protein (Amatruda T. T., Steele D. A., Slepak V. Z., Simon M. I., Proc. Nat. Acad. Sci. USA 88 (1991), 5587-5591), either independently or as a fusion gene. The resulting vasopressin receptor test cells react to stimulation of the recombinantly expressed vasopressin receptors by intracellular release of calcium ions, which can be quantified by the resulting aequorin luminescence using a suitable luminometer (Milligan G., Marshall F., Rees S., Trends in Pharmaco. Sci. 17 (1996) 235-237).
(§2) Test procedure: On the day before the assay, the cells are plated out in culture medium (DMEM, 10% FCS, 2 mM glutamine, 10 mM HEPES) in 384-well microtiter plates and kept in a cell incubator (96% humidity, 5% v/v carbon dioxide, 37° C.). On the day of the assay, the culture medium is replaced by a Tyrode solution (140 mM sodium chloride, 5 mM potassium chloride, 1 mM magnesium chloride, 2 mM calcium chloride, 20 mM glucose, 20 mM HEPES), which additionally contains the cofactor coelenterazine (50 μM), and the microtiter plate is then incubated for a further 3-4 hours. The test substances in various concentrations are placed for 10 to 20 minutes in the wells of the microtiter plate before the agonist [Arg8]-vasopressin is added, and the resulting light signal is measured immediately in the luminometer. The IC50 values are calculated using the GraphPad PRISM computer program (Version 3.02).
(§3) The table below lists representative IC50 values for the compounds of the invention on the cell line transfected with the human V1a or V2 receptor: […]

[2] = target: T2, human V1a receptor (Homo sapiens, UniProt P37288); assay: Cellular in vitro assay for vasopressin receptor activity (aequorin luminescence, CHO K1 cells), hV1a; format: cell-based; settings: CHO cell line transfected with human V1a receptor, agonist [Arg8]-vasopressin
T2 construct: expressed in transfected cells; host or cells: CHO K1 (ATCC), constitutively expressing modified aequorin
From the text: as §1, §2, §3

T1 sequence (P30518 whole entry): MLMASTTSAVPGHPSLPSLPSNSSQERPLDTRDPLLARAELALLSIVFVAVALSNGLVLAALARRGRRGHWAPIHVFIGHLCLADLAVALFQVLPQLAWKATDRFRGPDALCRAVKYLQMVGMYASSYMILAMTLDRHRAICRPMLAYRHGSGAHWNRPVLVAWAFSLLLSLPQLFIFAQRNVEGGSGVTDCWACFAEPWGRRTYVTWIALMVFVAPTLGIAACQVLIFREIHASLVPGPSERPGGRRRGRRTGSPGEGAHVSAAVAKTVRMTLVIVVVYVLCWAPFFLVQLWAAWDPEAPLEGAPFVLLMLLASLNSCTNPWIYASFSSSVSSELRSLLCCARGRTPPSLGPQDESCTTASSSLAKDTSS
T2 sequence (P37288 whole entry): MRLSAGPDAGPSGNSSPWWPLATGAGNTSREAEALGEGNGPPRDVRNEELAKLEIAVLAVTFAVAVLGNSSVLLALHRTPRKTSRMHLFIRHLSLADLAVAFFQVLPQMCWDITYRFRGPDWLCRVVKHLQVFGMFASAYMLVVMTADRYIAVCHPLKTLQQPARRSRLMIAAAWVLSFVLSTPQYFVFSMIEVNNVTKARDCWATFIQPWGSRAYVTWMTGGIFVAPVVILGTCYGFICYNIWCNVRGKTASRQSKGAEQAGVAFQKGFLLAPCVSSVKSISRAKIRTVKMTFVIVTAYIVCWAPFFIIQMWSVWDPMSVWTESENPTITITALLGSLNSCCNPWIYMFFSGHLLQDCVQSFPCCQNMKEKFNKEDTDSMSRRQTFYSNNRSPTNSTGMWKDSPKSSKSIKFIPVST

IC50 [1] [nM]	IC50 [2] [nM]	SMILES
6.4	6	CCC(NC(=O)Cn1nc(-c2ccc(Cl)cc2)n(C[C@H](O)C(F)(F)F)c1=O)(C(N)=O)c1cccc(C(F)(F)F)c1 (single isomer, unassigned) [Example 14]
16	6	CC(NC(=O)Cn1nc(-c2ccc(Cl)cc2)n(Cc2ccccc2F)c1=O)(C(N)=O)c1cccc(C(F)(F)F)c1 (single isomer, unassigned) [Example 25, 2-({[3-(4-Chlorophenyl)-4-(2-fluorobenzyl)-5-oxo-4,5-dihydro-1H-1,2,4-triazol-1-yl]acetyl}amino)-2-[3-(trifluoromethyl)phenyl]propanamide]
12	118	CC(NC(=O)Cn1nc(-c2ccc(Cl)cc2)n(C[C@H](O)C(F)(F)F)c1=O)(C(=O)O)c1cccc(C(F)(F)F)c1 (stereo partly drawn) [Example 1, 2-[({3-(4-Chlorophenyl)-5-oxo-4-[(2S)-3,3,3-trifluoro-2-hydroxypropyl]-4,5-dihydro-1H-1,2,4-triazol-1-yl}acetyl)amino]-2-[3-(trifluoromethyl)phenyl]propanoic acid]
28	106	C[C@@](NC(=O)Cn1nc(-c2ccc(Cl)cc2)n(C[C@H](O)C(F)(F)F)c1=O)(C(N)=O)c1cccc(C(F)(F)F)c1 [Example 3, (2S)-2-[({3-(4-Chlorophenyl)-5-oxo-4-[(2S)-3,3,3-trifluoro-2-hydroxypropyl]-4,5-dihydro-1H-1,2,4-triazol-1-yl}acetyl)amino]-2-[3-(trifluoromethyl)phenyl]propanamide]
3.7	2.2	C[C@](NC(=O)Cn1nc(-c2ccc(Cl)cc2)n(C[C@H](O)C(F)(F)F)c1=O)(C(N)=O)c1cccc(C(F)(F)F)c1 [Example 4, (2R)-2-[({3-(4-Chlorophenyl)-5-oxo-4-[(2S)-3,3,3-trifluoro-2-hydroxypropyl]-4,5-dihydro-1H-1,2,4-triazol-1-yl}acetyl)amino]-2-[3-(trifluoromethyl)phenyl]propanamide]
220	12	C[C@](NC(=O)Cn1nc(-c2ccc(Cl)cc2)n(C[C@H](O)C(F)(F)F)c1=O)(C(N)=O)c1ccccc1Cl [Example 17, (2R)-2-(2-Chlorophenyl)-2-[({3-(4-chlorophenyl)-5-oxo-4-[(2S)-3,3,3-trifluoro-2-hydroxypropyl]-4,5-dihydro-1H-1,2,4-triazol-1-yl}acetyl)amino]propanamide]
14	13	C[C@](NC(=O)Cn1nc(-c2ccc(Cl)cc2)n(/C=C/C(F)(F)F)c1=O)(C(N)=O)c1cccc(C(F)(F)F)c1 [Example 19, (2R)-2-[({3-(4-Chlorophenyl)-5-oxo-4-[(1E)-3,3,3-trifluoroprop-1-en-1-yl]-4,5-dihydro-1H-1,2,4-triazol-1-yl}acetyl)amino]-2-[3-(trifluoromethyl)phenyl]propanamide]
